This experiment has as its system ER-positive MCF7 human breast cancer cells. The experiment in a line: MCF7 cell proliferation assay. In kind it is cell-based. Conditions: MCF7, 120 h, read-out: Cell Proliferation EC50.

For the molecule `C[C@]12CC[C@@H]3c4ccc(O)cc4CC[C@H]3[C@@H]1CC[C@@H]2O` [E2, 17β-estradiol], the EC50 is 3.2 pM.

The values above are taken from paper PMC12340639 (ACS Pharmacology & Translational Science, 2025).
